# From PMC5770468, “Cardiac glycoside/aglycones inhibit HIV-1 gene expression by a mechanism requiring MEK1/2-ERK1/2 signaling” (Scientific Reports, 2018)
# Like-named read-outs stand apart in the source and are kept apart here.
# Experiments:
# [1] = tested on: clinical strains of HIV; assay: microbe, parasite or virus in culture; assay type: cell-based; details: for IC90 / IC50: Human immunodeficiency virus 1, PBMC, 336 h; for IC90: read-out: IC90, viral growth in HIV-infected PBMCs; for IC50: read-out: IC50 (nM) HIV-infected PBMCs
# Method: PBMCs from HIV infected patients were depleted of CD8^+ T cells (Supplementary Fig. S3), activated by anti-CD3 and anti-CD28 antibodies, and treated 20 d with indicated concentrations of drug/compound. HIV particle formation was quantitated by p24^CA ELISA of cell supernatants and viability of cells were assayed by XTT. […] Graphs of viral growth (p24 protein levels) and cell viability (gray circles, adjacent y-axis) of cells treated with drug/compounds (red triangles) or DMSO (black circles) are shown. The drug 3TC and the CS digoxin (d–e) were provided for comparison. […] Dose-response curves of CS effects on HIV replication (relative Gag expression, black circles) and cell viability (gray circles) were measured on day 14.
# PBMCs were then seeded to 24-well plates in the presence/absence of indicated drug/compounds (0.5 mL final) which were pre-diluted in RPMI^+++ in the same manner as described above. Every 3–4 days, ~0.25 mL of media was harvested for assays and replenished with ~0.25 mL of fresh medium with drug/compound and 20 U/mL of IL-2. HIV growth in cultures was monitored by p24^CA ELISA of cell supernatants harvested (detailed below) and the effect of compounds on cell viability were monitored by XTT assay.
# To monitor HIV-1 gene expression or replication, Gag release into cell culture supernatants were assayed by ELISA using a p24^CA antigen capture assay kit (AIDS & Cancer Virus Program, NCI-Frederick, Frederick, MD USA). Media harvested from HIV clinical isolates were diluted ~10 fold (or as necessary) prior to performing this assay. For analysis of HIV-1 and SR protein expression (and phosphorylation states with calf intestinal alkaline phosphatase treatments), cells were lysed and analyzed by western blot as previously outlined. Phosphatase inhibitors (e.g. 10 mM sodium fluoride, 2 mM sodium orthovanadate) were added to solutions requiring phospho protein analyses. An anti-chicken NKA antibody (α6F, #a6F–c, Developmental Studies Hybridoma Bank, The University of Iowa, contributed by Douglas M. Fambrough, The Johns Hopkins University) was used as specified to detect NKA α1- and β1-subunits across species. […] Activation of MAPKs was determined by western blot quantitation and calculation of phospho/total protein levels. […] Images were exported as TIF files for assembly, rotation, and equal brightness/contrast adjustments in ImageJ or Microsoft Powerpoint. Some lanes were cropped and rearranged from the same blot/gel as indicated. In representative gel/blot sets, samples were electrophoresed from the same experiment as controls, resolved simultaneously on identically cast gel(s), transferred to same PVDF (by either wet electrophoretic or by Bio-Rad Trans-Blot® Turbo Transfer System), and detected at same time. Marked locations of molecular weight (MW) standards are shown on the left as a reference. […] SUnSET analysis of total cellular protein synthesis. HeLa rtTA-HIV-ΔMls cells were cultured in the presence/absence of compound and pathway inhibitor (if any) and Dox induced for ~24 h as already described, then treated with puromycin (10 μg/mL, Sigma-Aldrich, #P8833) for 30 min to label nascent proteins prior to harvest. As control, 10 µM of cycloheximide (Sigma-Aldrich, #C4849) was added to some cells prior to puromycin treatment. Cells were subsequently washed, whole cell lysates prepared, and proteins quantified by western blot using an anti-puromycin antibody (EMD Millipore, #anti-12D10) as described above. Transfection of plasmid DNA into cells. Transfection of pCMV6-HA-AKT-1 (WT, KM, or Myr) or CMV myc and with CMV tTA pA and CMV PLAP plasmids into HeLa rtTA-HIV-ΔMls cells were performed by polyethylene imine (PEI) transfection as previously described[9],[10].
# [2] = tested on: HIV-1 US RNAs; assay: FISH localization of HIV-1 US RNA in HeLa rtTA-HIV(Gag-GFP) cells; assay type: cell-based; details: ~IC90s of CSs
# Text: Figure 4 CSs suppress HIV-1 gene expression by altering viral RNA processing. […] (a,b) CSs induce oversplicing of HIV-1 RNAs (n ≥ 3, mean, s.e.m.). (a) Diagram of the primer positions (arrow heads) used for qRT-PCR. (b) Graph of the relative amount of US (black), SS (white), and MS (gray) HIV-1 RNAs in cells treated with various CSs. (c) Nuclear export of HIV-1 US RNAs in cells is altered by CSs (representative n ≥ 4). HIV-1 US RNAs were localized by FISH after treating HeLa rtTA-HIV(Gag-GFP) cells as described above but with ~IC90s of CSs. Nuclei were stained by DAPI and images captured at 630 × magnification. (d) CSs induce differential post-translational modification of SR proteins (representative n ≥ 3). SRp20, Tra2β, and tubulin were analyzed by immunoblot of HeLa rtTA-HIV-ΔMls cells treated as described above except cells of this representative blot were treated 3 d with ~IC50s of CSs. (g) Lanes were cropped and assembled from the same gel/blot per box (Supplementary Fig. S4d).
# RNA was extracted from cells, reverse transcribed, and resulting cDNAs subject to qRT-PCR quantification of HIV-1 mRNAs as previously described except reactions used iTaq™ Universal SYBR® Green Supermix (Bio-Rad, #172-5120) run on a Bio-Rad CFX384 Touch™ Real-Time PCR Detection System and analyzed with CFX Manager™[9]. NKA α1, 2, and 3 subunits were detected by published primers, amplified by iTaq using the same cycling temperature and times previously described for HIV-1 US/MS cDNAs except α1, 2, and 3 annealing temperatures were 61 °C[9],[73]. All data was normalized to β-actin as internal loading control. Primers sequences for NKA α subunits were as follows: α1 forward (5′-[…] -3′), α1 reverse (5′- […] -3′), α2 forward (5′-[…]-3′), α2 reverse (5′-[…]-3′), α3 forward (5′-[…]-3′), and α3 reverse (5′-GGGCAGACTCAGACGCATC-3′). Monitoring the subcellular localization of HIV-1 genomic RNA. HeLa rtTA-HIV(Gag-GFP) cells were seeded on cover slips, treated with drug/compound, and processed for FISH to detect HIV-1 US RNAs using Stellaris™ probes (Biosearch Technologies) as previously detailed[10],[11].
# [3] = p24CA ELISA, day 14, inferred near maximal IC50s
Compound,"IC90 ([1]; Day14, p24CA ELISA)","IC50 [1, 3]",HIV-1 US RNA subcellular localization [2],"concentration to inhibit viral replication in HIV-infected PBMCs, fold lower than serum concentration in patients treated for heart conditions [1]",IC50 [1],IC90 [1]
C[C@]12CC[C@H](O)C[C@H]1CC[C@@H]1[C@@H]2CC[C@]2(C)[C@@H](C3=CC(=O)OC3)CC[C@]12O [Digitoxigenin],2 nM,~1.1 nM,Some residual cytoplasmic staining,,,
C[C@H]1O[C@@H](O[C@H]2[C@@H](O)C[C@H](O[C@H]3[C@@H](O)C[C@H](O[C@H]4CC[C@@]5(C)[C@H](CC[C@@H]6[C@@H]5CC[C@]5(C)[C@@H](C7=CC(=O)OC7)CC[C@]65O)C4)O[C@@H]3C)O[C@@H]2C)C[C@H](O)[C@@H]1O [Digitoxin],7.5 nM,~1.3 nM,Some residual cytoplasmic staining,15–26 fold,,
C[C@]12CC[C@H](O)C[C@H]1CC[C@@H]1[C@@H]2C[C@@H](O)[C@]2(C)[C@@H](C3=CC(=O)OC3)CC[C@]12O [Digoxigenin],,,almost exclusively within the nucleus,,,
C[C@H]1O[C@@H](O[C@H]2[C@@H](O)C[C@H](O[C@H]3[C@@H](O)C[C@H](O[C@H]4CC[C@@]5(C)[C@H](CC[C@@H]6[C@@H]5C[C@@H](O)[C@]5(C)[C@@H](C7=CC(=O)OC7)CC[C@]65O)C4)O[C@@H]3C)O[C@@H]2C)C[C@H](O)[C@@H]1O [Digoxin],,,almost exclusively within the nucleus,,~1.1 nM,2 nM
C[C@@H]1O[C@@H](O[C@H]2C[C@@H](O)[C@]3(CO)[C@H]4[C@H](O)C[C@]5(C)[C@@H](C6=CC(=O)OC6)CC[C@]5(O)[C@@H]4CC[C@]3(O)C2)[C@H](O)[C@H](O)[C@H]1O [Ouabain],,,Some residual cytoplasmic staining,,,
